Source: paper PMC12775434, “Ultra-large virtual screening unveils potent agonists of the neuromodulatory orphan receptor GPR139” (Nature Communications, 2025)
Several values for one entry are separate records, joined by “and”; a condition that tells them apart may be missing. Equal entries are not always repeated.

Assays:
Type in all cases: cell-based
[1] = target: T1, GPR139 (Homo sapiens, UniProt Q6DWJ6); assay: Ca2+ mobilization assay, antagonist mode (EC80 800 nM Lundbeck Cmp 1a after 20 min preincubation), GPR139-CHOk1
T1 sequence (Q6DWJ6 1-353): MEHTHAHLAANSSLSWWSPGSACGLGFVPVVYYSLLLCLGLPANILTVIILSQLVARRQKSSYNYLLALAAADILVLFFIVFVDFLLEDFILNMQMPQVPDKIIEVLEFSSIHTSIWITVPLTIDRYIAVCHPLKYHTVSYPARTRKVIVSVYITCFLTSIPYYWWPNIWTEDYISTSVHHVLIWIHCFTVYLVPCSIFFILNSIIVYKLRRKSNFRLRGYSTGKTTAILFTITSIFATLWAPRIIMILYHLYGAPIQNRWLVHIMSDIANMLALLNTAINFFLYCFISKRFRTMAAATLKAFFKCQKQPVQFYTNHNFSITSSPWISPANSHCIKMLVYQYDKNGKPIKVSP
How it was run: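 Fluo-4-loaded GPR139-CHOk1 cells in HEPES-buffered HBSS (pH 7.4, 2.5 mM probenecid) given test compounds at 10 µM, then after 20 min challenged with 800 nM Lundbeck Cmp 1a (EC80). Calcium fluorescence read at 37 °C, 485/525 nm.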

[2] = target: T2, human muscarinic acetylcholine M1 receptor (M1R) (Homo sapiens, UniProt P11229); assay: Ca2+ mobilization counter-screen in M1R-CHOk1 cells
T2 sequence (P11229 1-460): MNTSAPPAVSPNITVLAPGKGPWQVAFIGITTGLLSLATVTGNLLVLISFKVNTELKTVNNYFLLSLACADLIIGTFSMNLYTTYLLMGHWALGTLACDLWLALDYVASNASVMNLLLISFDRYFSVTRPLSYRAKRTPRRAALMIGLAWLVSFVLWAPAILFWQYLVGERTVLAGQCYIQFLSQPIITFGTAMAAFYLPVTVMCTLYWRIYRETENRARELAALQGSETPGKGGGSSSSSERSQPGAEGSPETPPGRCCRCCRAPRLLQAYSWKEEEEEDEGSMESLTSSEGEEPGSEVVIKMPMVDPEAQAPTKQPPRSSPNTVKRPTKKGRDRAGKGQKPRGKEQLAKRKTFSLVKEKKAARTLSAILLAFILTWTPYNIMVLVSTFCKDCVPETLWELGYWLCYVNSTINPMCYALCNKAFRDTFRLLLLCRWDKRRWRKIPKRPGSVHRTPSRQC
How it was run: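 Intracellular calcium is tracked by Fluo-4 fluorescence at 37 °C in M1R-CHOk1 cells, with compounds dispensed automatically once baseline is taken. Buffer is HBSS with 20 mM HEPES, pH 7.4, plus 2.5 mM probenecid.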

[3] = target: T1, GPR139; assay: Ca2+ mobilization assay, agonist mode, stable GPR139-CHOk1 cell line; conditions: for fold decrease in potency relative to a similar phenyl substituted compound (1.3): Ca2+ mobilization EC50; for EC50 / Emax: Supplementary Table 2, mean ± SEM; for EC50: read-out: pEC50 Ca2+ (converted); for Emax: normalized to Lundbeck Cmp 1a, read-out: Emax (%) Ca2+
How it was run: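 Agonist activity of compounds is assessed in stably transfected CHO-K1 cells using the calcium dye Fluo-4 at 37 °C in HEPES-buffered HBSS (pH 7.4). Efficacy is expressed relative to the reference agonist Lundbeck Cmp 1a, set as 100%.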

[4] = individual replicates (Supplementary Figure 4)
[5] = individual replicates (Supplementary Figure 5)
[6] = Agonist mode, individual replicates (Supplementary Figure 4)
[7] = log [Compound] M = -4.5, individual replicate columns
[8] = log [Compound] M = -5.0, individual replicate columns
[9] = log [Compound] M = -5.5, individual replicate columns
[10] = log [Compound] M = -6.0, individual replicate columns
[11] = log [Compound] M = -6.5, individual replicate columns
[12] = log [Compound] M = -7.0, individual replicate columns
[13] = log [Compound] M = -7.5, individual replicate columns
[14] = log [Compound] M = -8.0, individual replicate columns
[15] = log [Compound] M = -8.5, individual replicate columns
[16] = log [Compound] M = -9.0, individual replicate columns

In the case of `Cc1ccnc(-c2nc(CC(=O)NC(C)c3ccccc3)no2)c1` (stereo not shown) [Compound 1.17, CC(C1=CC=CC=C1)NC(CC2=NOC(C3=NC=CC(C)=C3)=N2)=O], the “Ca2+ signal (% of Cmp 1a)” value [1, 4] is reported as 4 % of Cmp 1a and 35 % of Cmp 1a and 2.33 % of Cmp 1a, the “Ca2+ signal (% of Carbachol)” value [2, 5] is reported as -5.46 % of Carbachol and 6 % of Carbachol and 7.55 % of Carbachol and the “Ca2+ signal (% of Cmp 1a)” value [3, 6] is reported as 56 % of Cmp 1a and 85 % of Cmp 1a and 81 % of Cmp 1a. The “fold decrease in potency relative to a similar phenyl substituted compound (1.3)” value [3] was 4- to 16 fold, the EC50 [3] was 794 nM and the Emax [3] was 98 ± 3%. For the same molecule, the “Ca2+ signal (% of Cmp 1a)” value [3, 7] was 97 % of Cmp 1a (2×) and 99 % of Cmp 1a and 98 % of Cmp 1a and 90 % of Cmp 1a, the “Ca2+ signal (% of Cmp 1a)” value [3, 8] was 111 % of Cmp 1a and 99 % of Cmp 1a and 92 % of Cmp 1a and 73 % of Cmp 1a and 91 % of Cmp 1a and the “Ca2+ signal (% of Cmp 1a)” value [3, 9] was 133 % of Cmp 1a and 107 % of Cmp 1a and 62 % of Cmp 1a and 54 % of Cmp 1a and 75 % of Cmp 1a. The “Ca2+ signal (% of Cmp 1a)” value [3, 10] was 82 % of Cmp 1a and 74 % of Cmp 1a and 57 % of Cmp 1a and 42 % of Cmp 1a and 56 % of Cmp 1a, the “Ca2+ signal (% of Cmp 1a)” value [3, 11] was 39 % of Cmp 1a and 41 % of Cmp 1a and 22 % of Cmp 1a and 13 % of Cmp 1a and 21 % of Cmp 1a and the “Ca2+ signal (% of Cmp 1a)” value [3, 12] was 27 % of Cmp 1a and 24 % of Cmp 1a and 4.3 % of Cmp 1a and 2.59 % of Cmp 1a and 7 % of Cmp 1a. The “Ca2+ signal (% of Cmp 1a)” value [3, 13] was 12 % of Cmp 1a (2×) and -2.74 % of Cmp 1a and 7 % of Cmp 1a and 4.7 % of Cmp 1a, the “Ca2+ signal (% of Cmp 1a)” value [3, 14] was 7 % of Cmp 1a and 3 % of Cmp 1a and -1 % of Cmp 1a and 10 % of Cmp 1a and 2.65 % of Cmp 1a and the “Ca2+ signal (% of Cmp 1a)” value [3, 15] was 7 % of Cmp 1a and 1.19 % of Cmp 1a and 6 % of Cmp 1a (2×) and 3 % of Cmp 1a. For the same molecule, the “Ca2+ signal (% of Cmp 1a)” value [3, 16] was 11 % of Cmp 1a and 1.67 % of Cmp 1a and 3 % of Cmp 1a and 4.53 % of Cmp 1a and 4.33 % of Cmp 1a.
With `COCC(NC(=O)NC(C)c1ccc(F)cc1F)c1ccccc1` (stereo not shown) [Compound 6, COCC(NC(=O)NC(C)C=1C=CC(F)=CC1F)C=2C=CC=CC2] the “Ca2+ signal (% of Cmp 1a)” value ([1]; individual replicates (Supplementary Figure 1)) was 39.4931 % of Cmp 1a and 54.2036 % of Cmp 1a and 45.3276 % of Cmp 1a, the “Ca2+ signal (% of Carbachol)” value ([2]; individual replicates (Supplementary Figure 2)) was -19 % of Carbachol and -0.753 % of Carbachol and the “Ca2+ signal (% of Cmp 1a)” value ([3]; 0.1 µM, individual replicates (Supplementary Figure 3)) was -5.9 % of Cmp 1a and -10.9 % of Cmp 1a. For the same molecule, the “Ca2+ signal (% of Cmp 1a)” value ([3]; 1 µM, individual replicates (Supplementary Figure 3)) was 3.9 % of Cmp 1a and 9.9 % of Cmp 1a, the “Ca2+ signal (% of Cmp 1a)” value ([3]; 10 µM, individual replicates (Supplementary Figure 3)) was 34.7 % of Cmp 1a and 32.7 % of Cmp 1a and the “activation of GPR139 at three concentrations” value ([3]; 0.1, 1 and 10 µM, activity too low to reliably determine EC50) was “concentration-dependent activation of GPR139”. The “Ca2+ signal (% of Cmp 1a)” value ([3]; Agonist mode, individual replicates (Supplementary Figure 1)) was 37 % of Cmp 1a and 42 % of Cmp 1a and 46 % of Cmp 1a and the “Ca2+ signal (% of Cmp 1a)” value ([3]; primary screen, 10 µM compound, agonist mode, three columns = independent experiments) was 37 % of Cmp 1a and 42 % of Cmp 1a and 46 % of Cmp 1a.
`Cc1cccc(-c2nc(CC(=O)NC(C)c3ccccc3)no2)n1` (stereo not shown) [Compound 1.13, CC(C1=CC=CC=C1)NC(CC2=NOC(C3=NC(C)=CC=C3)=N2)=O] was tested, and the “Ca2+ signal (% of Cmp 1a)” value [1, 4] was 7 % of Cmp 1a and 16 % of Cmp 1a and -17 % of Cmp 1a, the “Ca2+ signal (% of Carbachol)” value [2, 5] was -3 % of Carbachol and 3 % of Carbachol and 7 % of Carbachol and the “Ca2+ signal (% of Cmp 1a)” value [3, 6] was 87 % of Cmp 1a and 109 % of Cmp 1a and 94 % of Cmp 1a. The “fold decrease in potency relative to a similar phenyl substituted compound (1.3)” value [3] was 4- to 16 fold, the EC50 [3] was 398 nM and the Emax [3] was 95 ± 10%. For the same molecule, the “Ca2+ signal (% of Cmp 1a)” value [3, 7] was 113 % of Cmp 1a and 100 % of Cmp 1a and 105 % of Cmp 1a and 55 % of Cmp 1a, the “Ca2+ signal (% of Cmp 1a)” value [3, 8] was 98 % of Cmp 1a and 101 % of Cmp 1a and 89 % of Cmp 1a and 78 % of Cmp 1a and the “Ca2+ signal (% of Cmp 1a)” value [3, 9] was 85 % of Cmp 1a and 87 % of Cmp 1a and 83 % of Cmp 1a and 50 % of Cmp 1a. For the same molecule, the “Ca2+ signal (% of Cmp 1a)” value [3, 10] was 76 % of Cmp 1a and 73 % of Cmp 1a (2×) and 42 % of Cmp 1a, the “Ca2+ signal (% of Cmp 1a)” value [3, 11] was 49 % of Cmp 1a (2×) and 40 % of Cmp 1a and 22 % of Cmp 1a and the “Ca2+ signal (% of Cmp 1a)” value [3, 12] was 28 % of Cmp 1a and 33 % of Cmp 1a and 12 % of Cmp 1a (2×). The “Ca2+ signal (% of Cmp 1a)” value [3, 13] was 0 % of Cmp 1a and 14 % of Cmp 1a and -10 % of Cmp 1a and 13 % of Cmp 1a, the “Ca2+ signal (% of Cmp 1a)” value [3, 14] was 8 % of Cmp 1a and 0.667 % of Cmp 1a and -4 % of Cmp 1a and -5 % of Cmp 1a and the “Ca2+ signal (% of Cmp 1a)” value [3, 15] was 8 % of Cmp 1a and -4.67 % of Cmp 1a and -2.67 % of Cmp 1a and -3 % of Cmp 1a. For the same molecule, the “Ca2+ signal (% of Cmp 1a)” value [3, 16] was 2 % of Cmp 1a (2×) and -0.333 % of Cmp 1a and -15 % of Cmp 1a.
In the case of `Cc1cc(-c2nc(CC(=O)NC(C)c3ccccc3)no2)cs1` (stereo not shown) [Compound 1.4, CC(C1=CC=CC=C1)NC(CC2=NOC(C3=CSC(C)=C3)=N2)=O], the “Ca2+ signal (% of Cmp 1a)” value [1, 4] is reported as -0.333 % of Cmp 1a and -4 % of Cmp 1a and -17 % of Cmp 1a, the “Ca2+ signal (% of Carbachol)” value [2, 5] is reported as -1 % of Carbachol and 20 % of Carbachol and -5 % of Carbachol and the “Ca2+ signal (% of Cmp 1a)” value [3, 6] is reported as 100 % of Cmp 1a and 61 % of Cmp 1a and 92 % of Cmp 1a. For the same molecule, the EC50 [3] was 100 nM, the Emax [3] was 114 ± 6% and the “Ca2+ signal (% of Cmp 1a)” value [3, 7] was 106 % of Cmp 1a and 107 % of Cmp 1a and 115 % of Cmp 1a and 110 % of Cmp 1a. The “Ca2+ signal (% of Cmp 1a)” value [3, 8] was 109 % of Cmp 1a and 91 % of Cmp 1a and 131 % of Cmp 1a and 113 % of Cmp 1a, the “Ca2+ signal (% of Cmp 1a)” value [3, 9] was 103 % of Cmp 1a and 82 % of Cmp 1a and 119 % of Cmp 1a and 123 % of Cmp 1a and the “Ca2+ signal (% of Cmp 1a)” value [3, 10] was 107 % of Cmp 1a and 79 % of Cmp 1a and 97 % of Cmp 1a and 127 % of Cmp 1a. For the same molecule, the “Ca2+ signal (% of Cmp 1a)” value [3, 11] was 81 % of Cmp 1a and 66 % of Cmp 1a and 80 % of Cmp 1a and 103 % of Cmp 1a, the “Ca2+ signal (% of Cmp 1a)” value [3, 12] was 48 % of Cmp 1a and 47 % of Cmp 1a and 54 % of Cmp 1a and 90 % of Cmp 1a and the “Ca2+ signal (% of Cmp 1a)” value [3, 13] was 24 % of Cmp 1a and 22 % of Cmp 1a and 35 % of Cmp 1a and 47 % of Cmp 1a. For the same molecule, the “Ca2+ signal (% of Cmp 1a)” value [3, 14] was 5.33 % of Cmp 1a and 2.67 % of Cmp 1a and 18 % of Cmp 1a and 26 % of Cmp 1a, the “Ca2+ signal (% of Cmp 1a)” value [3, 15] was 2.67 % of Cmp 1a (2×) and 7 % of Cmp 1a (2×) and the “Ca2+ signal (% of Cmp 1a)” value [3, 16] was 6 % of Cmp 1a and 1.67 % of Cmp 1a and 13 % of Cmp 1a and 4.33 % of Cmp 1a.
